Here are results for 18 molecules from patent US6489535B1, “Non-mammalian transgenic animal having an adult onset neurodegenerative phenotype” (priority 1999, dated 2002).

One series deals with AON mutant fly strain. Put plainly: whole plant or invertebrate. It is filed as in vivo, Drosophila melanogaster. Particulars: for Phenotype AON + E: larva fed .5 μg/ml estrogen, >90% of 100 flies. On the procedure: (§1) Each compound was prepared over a range of dilutions and each was tested for the activity of alleviating the adult onset neurodegeneration condition. The compound dilutions were uptaken by either the larva or adult flies. The compound dilutions were mixed into the nutrient media and this served as the food/water source for either larva or flies. The adult onset neurodegeneration symptoms and their timelines were monitored for each compound dilution and compared to the no treatment control. Compounds examined here included: beta-estradiol, zinc chloride, sodium chloride, water, chocolate, and phosphate buffered saline.
In addition, compounds were also tested in the AON mutant fly strain that were known not to influence human AON conditions. Finally, a complex mixture with unknown influence on human AON conditions was tested in the AON mutant fly strain.

A further series relates to wild-type adult flies. Put plainly: Wild-type flies fed estrogen, phenotype by adult age. Further: key: None = normal adult fly; WC = loss of wing control; WP = wings paralyzed; C = loss of coordination and locomotion capabilities; L = flies stop uptaking liquid; D = death. It is filed as in vivo, Drosophila melanogaster. Particulars: larva fed .5 μg/ml estrogen. As for the experimental part:
as §1

The mark [1] stands for this setting: Drosophila melanogaster, po, read-out: S increased (S = AON symptom free adult time span).

Like-named read-outs stand apart in the source and are kept apart here.
Wherever Phenotype AON + E is given: key: None = normal adult fly; WC = loss of wing control; WP = wings paralyzed; C = loss of coordination and locomotion capabilities; L = flies stop uptaking liquid; D = death.

Turning to `Cc1c(C)c2c(c(C)c1O)CC[C@@](C)(CCC[C@H](C)CCC[C@H](C)CCCC(C)C)O2` [Alpha Tocopherol], the L.D. result with AON mutant fly strain (dose 1 mg/ml) is listed as “L.D. 30,”. In the series on AON mutant fly strain (dose 1 mg/ml, escapers), the “D increased (D = life span)” value is given as “increased 33%” and the “S increased (S = AON symptom free adult time span)” value was 200%, D.
Regarding `CN1[C@@H]2CC[C@H]1C[C@@H](OC(c1ccccc1)c1ccccc1)C2` [Benztropine], in the series with AON mutant fly strain (setting [1]), the change in vivo at 0.023 µg/mL came to 400%, the change in vivo at 0.23 µg/mL was 300% and the change in vivo at 23 µg/mL is 500%. In addition, in the series on AON mutant fly strain (dose .000023 mg/ml), the “D increased (D = life span)” value was determined as 33%. For the same molecule, the “D increased (D = life span)” value in the series with AON mutant fly strain (dose .00023 mg/ml) stood at 17%. Also, the “L.D., AON class” value in the series on AON mutant fly strain (dose .023 mg/ml, AON class) was “L.D. 95,”. Also, the L.D. entry in the series with AON mutant fly strain (dose .23 mg/ml) is given as “L.D. 100”.
Take `CC(C)C[C@H]1C(=O)N2CCC[C@H]2[C@]2(O)O[C@](NC(=O)[C@@H]3C=C4c5cccc6[nH]c(Br)c(c56)C[C@H]4N(C)C3)(C(C)C)C(=O)N12` [Bromocriptine]: in the series with AON mutant fly strain (Drosophila melanogaster, po, dose .01 mg/ml, read-out: S increased (S = AON symptom free adult time span)), the change in vivo at 10 µg/mL came to 33%. The L.D. entry with AON mutant fly strain (dose .1 mg/ml) is on record as “L.D. 100”.
For `CN1C(=O)CN=C(c2ccccc2)c2cc(Cl)ccc21` [Diazepam], the L.D. result in the series with AON mutant fly strain (AON mutant fly strain, Drosophila melanogaster, in vivo) is on record as “L.D. 100”. The “result (effect on AON phenotype)” value with AON mutant fly strain (in vivo) is “No Effect”.
As for `C[C@]12N[C@H](Cc3ccccc31)c1ccccc12` [Dizocilipine], the “S increased (S = AON symptom free adult time span)” value in the series on AON mutant fly strain (dose .00006 mg/ml) worked out at 17%. The AON symptoms delayed result in the series on AON mutant fly strain (dose .0006 mg/ml) was “delayed 2 days”. Also, in the series with AON mutant fly strain (dose .06 mg/ml), the AON growth result is “delayed” and the “result (effect on AON phenotype)” value is recorded as “No”. Further, in the series on AON mutant fly strain (in vivo), the L.D. entry is given as “L.D. 100”.
`N[C@@H](Cc1ccc(O)c(O)c1)C(=O)O` [Levodopa]: in the series with AON mutant fly strain (setting [1]), the change in vivo at 0.15 µg/mL was 100%.
`CCN(CC)C(=O)N[C@H]1C=C2c3cccc4[nH]cc(c34)C[C@H]2N(C)C1` [Lisuride]: the change in vivo at 2 µg/mL in the series on AON mutant fly strain (Drosophila melanogaster, po, dose .002 mg/ml, read-out: S increased (S = AON symptom free adult time span)) was 100%. The L.D. result was “L.D. 100” with AON mutant fly strain (dose 2 mg/ml); “L.D. 60, S” in the series on AON mutant fly strain (dose .002 mg/ml); “L.D. 99 (no” with AON mutant fly strain (dose .02 mg/ml, (no AON flies)); “L.D. 100” in the series with AON mutant fly strain (dose .2 mg/ml).
For the molecule `COc1ccc2[nH]cc(CCNC(C)=O)c2c1` [Melatonin], the L.D. result in the series with AON mutant fly strain (dose 5 mg/ml) is “L.D. 100”. Moreover, the “result (effect on AON phenotype)” value with AON mutant fly strain (dose .0005 mg/ml), in the series with AON mutant fly strain (dose .005 mg/ml), in the series with AON mutant fly strain (dose .05 mg/ml) and in the series with AON mutant fly strain (dose .5 mg/ml) was “No Effect” each time.
Consider `NC(=O)c1cccnc1` [Nicotinamide], for which the change in vivo at 5000 µg/mL in the series with AON mutant fly strain (setting [1]) was 100%. In the series on AON mutant fly strain (dose 5 mg/ml), the L.D. result is reported as “L.D. 90, S”.
In the case of `CCCn1cnc2c1c(=O)n(CCCCC(C)=O)c(=O)n2C` [Propentofylline], the change in vivo at 5000 µg/mL with AON mutant fly strain (setting [1]) is 200%. In the series on AON mutant fly strain (dose 5 mg/ml), the L.D. entry is recorded as “L.D. 80,”. The “D increased (D = life span)” value in the series on AON mutant fly strain (dose 5 mg/ml, escapers) was determined as 17%.
Turning to `Nc1nc2ccc(OC(F)(F)F)cc2s1` [Riluzole], the change in vivo at 10 µg/mL in the series on AON mutant fly strain (setting [1]) worked out at 100%. Moreover, in the series on AON mutant fly strain (dose .01 mg/ml), the “D increased (D = life span)” value is on record as “increased 17%”.
On to `C#CCN(C)[C@H](C)Cc1ccccc1` [Selegiline], for which, in the series on AON mutant fly strain (Drosophila melanogaster, po, dose .0002 mg/ml, read-out: S increased (S = AON symptom free adult time span)), the change in vivo at 0.2 µg/mL was determined as 200%. In the series on AON mutant fly strain (Drosophila melanogaster, po, dose .02 mg/ml, read-out: S increased (S = AON symptom free adult time span)), the change in vivo at 20 µg/mL stood at 100%. Further, in the series on AON mutant fly strain (dose 2 mg/ml), the L.D. entry is reported as “L.D. 100”. The “L.D., AON class only” value in the series with AON mutant fly strain (dose .2 mg/ml, AON class only) is on record as “only, L.D. 95,”. In the series on AON mutant fly strain (dose .2 mg/ml, escapers), the “result (effect on AON phenotype)” value is “No Effect”.
As for `Nc1c2c(nc3ccccc13)CCCC2` [Tacrine], the change in vivo at 0.5 µg/mL in the series with AON mutant fly strain (setting [1]) turned out to be 100%.
Take `OC(CCN1CCCCC1)(c1ccccc1)C1CCCCC1` (centres unmarked) [Trihexyphenidyl]: in the series on AON mutant fly strain (setting [1]), the change in vivo at 100 µg/mL is about 25% and the change in vivo at 1000 µg/mL is 33%.
Turning to `[Cl-].[Cl-].[Zn+2]` [Zinc, zinc chloride], the “effect on the AON condition” value in the series on AON mutant fly strain (higher concentrations, 50-100 μgrams/ml of nutrient media, oral) is “exacerbated the AON condition”. The “effect on the mutant AON fly strain” value with AON mutant fly strain (low concentrations, 10-20 μgrams/ml of nutrient media, oral) is “no effect was observed”.
In the case of `CCCN1C[C@H](CSC)C[C@@H]2c3cccc4[nH]cc(c34)C[C@H]21` [pergolide], in the series with AON mutant fly strain (dose not stated), the “effect in the AON fly drug screening” value is “did not show any effect”.
Consider `[Cl-].[Na+]` [sodium chloride], for which, in the series with AON mutant fly strain (oral, dose not stated), the “effect on the AON phenotype in the mutant fly strain” value was “no effect”.
beta-estradiol [Estrogen]: the “effect on the AON condition in the mutant fly strain” value with AON mutant fly strain (administered orally) is listed as “alleviates the AON condition”. The “Phenotype AON + E” value in the series with AON mutant fly strain (age of adult 0-1 hours) and in the series with AON mutant fly strain (age of adult 1-3 hours) was “None” each time. Further, the “D increased (D = life span)” value with AON mutant fly strain (dose 5 mg/ml) was “increased 68%”. The “S increased (S = AON symptom free adult time span)” value is reported as 100%, D in the series with AON mutant fly strain (dose 5 mg/ml) and 200% with AON mutant fly strain (dose .5 mg/ml). Moreover, the “Phenotype Wt + E” value in the series on wild-type adult flies (age of adult 0-1 hours), with wild-type adult flies (age of adult 1-3 hours), in the series with wild-type adult flies (age of adult 3-24 hours), in the series with wild-type adult flies (age of adult 24-36 hours), in the series on wild-type adult flies (age of adult 36-72 hours) and with wild-type adult flies (age of adult 72-144 hours) was “None” each time. Also, in the series on wild-type adult flies (age of adult 144+ hours), the “Phenotype Wt + E” value was “None”.
